Experimental data: patent publication US9072728B2, “Treatment of severe distal colitis” (priority 2003, dated 2015)

Legend:
[1] = tested on: human PMN transmigration across intestinal T84 cell monolayers; assay: PMN transmigration across intestinal T84 cell monolayers (in-vitro model of colitis); format: cell-based; conditions: for attenuation of PMN transepithelial migration: FIG. 2A, 2B
From the text: Recruitment of polymorphonuclear neutrophils (PMN's) across intestinal epithelia and into the lumen, resulting in mucosal ulcerations or frank crypt abscesses, occurs in a broad spectrum of infectious, inflammatory, and allergic diarrheal states, including patients with inflammation of surgically constructed ileal reservoirs (“pouchitis”). The transmigration of PMN's across the epithelial barrier represents the pathognomonic feature of acute and active chronic intestinal inflammation. Since CLT has been previously shown to inhibit PMN chemotaxis in-vitro, this study tested if CLT may also be efficacious in attenuating PMN transmigration in an established in-vitro model of colitis using intestinal T84 cell monolayers.
The efficacy of CLT was compared to other antibiotic (metronidazole) and steroid (prednisone) agents that currently represent the standards of care for the topical or systemic therapy of pouchitis. […] […] As such, topical CLT treatment represents an attractive alternative for patients whose pouchitis disease has proven to be refractory to standard antibiotic or anti-inflammatory regimens. CLT may inhibit PMN transmigration by inhibiting the operation of plasma membrane K^+ or Ca^++ channels that are likely required to accommodate the volume changes necessary for PMN transmigration through epithelial intercellular tight junctions.

[2] = tested on: IL-8 secretion in Calu-3 cells; assay: IL-8 in basolateral supernatants of Calu-3 cells (ELISA); format: cell-based; conditions: for inhibition of secreted IL-8: Calu-3 cells stimulated with Salmonella, 30 μM test compound, 5 hours, FIG. 4
Experimental: Calu-3 cells were plated at subconfluency onto Costar inserts (3.0 μm membrane pore size) using standard techniques. After 24 hours, the apical well media was aspirated, and the Calu-3 cells were permitted to grow at the air/media interface. Basolateral media was changed every 2-3 days until they had grown into confluent monolayers (typically 7-10 days). Pathogenic Salmonella typhi were grown in Luria's both overnight at 37° C. (on the night prior to experimentation). The bacteria were washed twice in approximately 20 ml Hanks Balanced Salt Solution (HBSS). Prior to use, bacteria were spun down and resuspended in a total of 10 ml HBSS.
On the day of experimentation, inserts were washed in HBSS and placed into wells containing HBSS with either vehicle (0.0015% ethanol) or 30 μM of specific imidazole or non-imidazole containing test compound (all compounds were diluted from 20 mM working stock). 200 μL of bacteria were then loaded onto the apical compartment, and the cells were allowed to incubate for 5 hours. The basolateral buffer solutions from each insert were subsequently aspirated into eppendorfs and stored at −20° C. Calu-3 filters were cut and rotated for 30 minutes in 250 μL of lysis buffer [10 mL of PBS containing 1 Complete Protease Inhibitor Cocktail Tablet (Roche Pharmaceuticals) tablet and […]] at 4° C., spun at 14,000 for 20 minutes, and the clarified supernatant was stored at −20° C. Supernatant and lysate IL-8 protein content was measured by ELISA using standard techniques.

[3] = tested on: IL-8 secretion from cultured intestinal (T84) epithelia; assay: IL-8 secretion from cultured intestinal epithelial T84 cells; format: cell-based; conditions: T84 cells 30 minutes with CLT (30 μM) prior to stimulation with PMA, TNF or Salmonella typhimurium; each agonist; FIG. 3
Experimental: Intestinal epithelial cells play an active role in the mediation of intestinal inflammation through the production and regulated secretion of a variety of pro-inflammatory cytokines including IL-8. […] In these experiments, cultured intestinal epithelial T84 cells were incubated for 30 minutes with CLT (30 μM) prior to stimulation with either the protein kinase C stimulator PMA, the pro-inflammatory cytokine TNF, or a strain of pathogenic Salmonella typhimurium.

[4] = oral CLT 60-90 mg/Kg body weight/day; cited from earlier work
[5] = tested on: pediatric and adult patients with active pouchitis; assay: Safety and clinical outcome of rectal CLT suppositories, open-labeled dose escalating trial; format: in vivo, human
Experimental: (§1) The safety and efficacy of topical CLT therapy was also evaluated (delivered as a rectal suppository) in pediatric and adult patients with active pouchitis. In this study, subjects progressed through three escalating dosing levels: Step A (500 mg rectal suppositories applied twice daily); Step B (750 mg rectal suppositories applied twice daily); Step C (1,500 mg delivered twice daily). Serum levels (measured using a previously validated HPLC assay) were obtained within 3 to 6 hours after administering the morning (8 AM) dose of CLT and are presented in Table 2.
Rectal CLT delivered as a suppository, toxicity.
(§2) In this study, subjects were treated with escalating doses of study drug: Step A (500 mg rectal suppositories applied twice daily); Step B (750 mg rectal suppositories applied twice daily); Step C (1,500 mg delivered twice daily). Few parameters were measured including fecal lactoferrin, a marker of white blood cell excretion, to assess the effects of topical CLT therapy on PMN transmigration in patients with pouchitis. This assay has been previously validated as a quantitative biochemical measure of PMN transmigration in patients with infectious colitis and inflammatory bowel disease.

[6] = cited from earlier work
[7] = oral CLT; mice, rats, and rabbits; cited from earlier work
[8] = tested on: fecal lactoferrin, a marker of white blood cell excretion (PMN transmigration); assay: Fecal lactoferrin in pouchitis patients treated with CLT suppositories; format: in vivo, human; conditions: in 6 of 8 subjects studied; rectal suppository
Experimental: as §2

[9] = cited from earlier work; remark: listed apart in the source
[10] = Serum CLT levels after rectal CLT suppositories (HPLC assay); format: in vivo, human
Experimental: as §1

[11] = oral CLT, experimental animals; cited from earlier work
[12] = Safety laboratory data for CLT retention enemas; format: in vivo, human; conditions: change from baseline; retention enemas daily 3500-4000 mg; n=9
Experimental: In addition to efficacy data, safety data was also gathered for the use of CLT in retention enemas administered daily in a dose of 3500-4000 mg in the same group of patients. The following parameters were measured: urea nitrogen, Creatinine, aspartate aminotransferase (AST or SGOT), alanine aminotransferase (ALT or SGPT), alkaline phosphatase (Alk Phos), Total Bilirubin, Direct Bilirubin, Albumin, and Hematocrit.

[13] = cited from earlier work; remark: listed apart in the source
[14] = tested on: IL-8 within Calu-3 cells; assay: IL-8 in Calu-3 cell lysates (ELISA); format: cell-based; conditions: FIG. 5
[15] = PMN's and T84 cells incubated with 30 μM of study drug for 30 minutes
[16] = after application of one vaginal tablet

SMILES: Clc1ccccc1C(c1ccccc1)(c1ccccc1)n1ccnc1 [CLT, clotrimazole]
- attenuation of PMN transepithelial migration [1, 15]: more potent
- inhibition of transepithelial migration ([1]; incubation of T84 monolayers alone with CLT, prior to layering of untreated PMN's, compared with PMN pretreatment, FIG. 1): equal or greater extent
- PMN transmigration ([1]; pretreatment of PMN's alone with CLT (30 μM) for 30 minutes, FIG. 1): inhibited significantly
- inhibition of secreted IL-8 [2]: High level of IL-8 inhibition
- IL-8 in supernatants, time-course ([2]; at 5 hours, Calu-3 cells pretreated, FIGS. 6 and 7): no IL-8 in the supernatants
- IL-8 secretion [3]: inhibited completely
- patients reporting gastrointestinal complaints (nausea, vomiting, and diarrhea) [4]: 13%
- patients who developed chemical cystitis [4]: 4.4%
- patients who developed contact dermatitis [4]: 2.2%
- patients who found the therapy intolerable [4]: 6.5%
- patients who tolerated CLT therapy moderately well [4]: 18.5%
- patients who tolerated CLT therapy well [4]: 64%
- adverse effect of CLT therapy ([5]; subject one): no significant adverse effect
- changes in urinary sediment or serum BUN or creatinine values ([5]; subjects other than ZP): No other subjects participating in the study demonstrated any significant changes
- tolerability ([5]; topical CLT delivered as a rectal suppository, pediatric and adult patients): generally well tolerated
- serum CLT levels on continued therapy ([6]; after one week of continued daily therapy with oral tablets): seemed to decline
- adverse effect after first dose ([6]; normal volunteers, oral CLT in oil form, first dose of 1,000 mg): severe vertigo
- time to disappearance of all neurological symptoms after discontinuing CLT therapy ([6]; normal volunteers, oral CLT in oil form): ≤ 24 hours
- LD50 [7]: 700-1,000 mg/Kg
- reduction of PMN excretion (fecal lactoferrin) [8]: 77%
- side effects of mucosal preparations ([9]; 1% vaginal cream, 100 mg and 500 mg tablets): minimal side effects
- concurrent plasma levels [9, 16]: lower than 0.01 μg/ml
- time fungicidal concentrations of CLT detected in vaginal fluid [9, 16]: up to 3 days
- central nervous system abnormalities ([9]; topical application of CLT): No central nervous system abnormalities
- Serum CLT levels, Step A ([10]; 500 mg rectal suppositories twice daily, 3 to 6 hours after morning dose, one line per subject): below the level of detection
- systemic absorption from ileal pouches (measured as serum CLT concentration) ([10]; rectal suppository): generally poor systemic absorption
- serum CLT level at the time of renal diagnosis ([10]; subject two, CLT suppositories): 0.08 µM
- subacute and chronic toxicity, organs involved [11]: liver (degenerative changes) and the adrenal gland (increased fat deposition)
- time to reversal of liver and adrenal changes after discontinuation of therapy [11]: ≤ 6 months
- ALBUMIN, Change, MAX [12]: 1.1 G/DI
- ALBUMIN, Change, MEAN [12]: 0.1 G/DI
- ALBUMIN, Change, MEDIAN [12]: 0.0 G/DI
- ALBUMIN, Change, MIN [12]: −0.4 G/DI
- ALKALINE PHOSPHATASE, Change, MAX [12]: 37.0 U/L
- ALKALINE PHOSPHATASE, Change, MEAN [12]: −2.4 U/L
- ALKALINE PHOSPHATASE, Change, MEDIAN [12]: 1.0 U/L
- ALKALINE PHOSPHATASE, Change, MIN [12]: −60.0 U/L
- CREATININE, Change, MAX [12]: 0.1 mg/dL
- CREATININE, Change, MEAN [12]: -0.0 mg/dL
- CREATININE, Change, MEDIAN [12]: -0.1 mg/dL
- CREATININE, Change, MIN [12]: -0.2 mg/dL
- DIRECT BILIRUBIN, Change, MAX [12]: 0.1 mg/dL
- DIRECT BILIRUBIN, Change, MEAN [12]: -0.0 mg/dL
- DIRECT BILIRUBIN, Change, MEDIAN [12]: 0.0 mg/dL
- DIRECT BILIRUBIN, Change, MIN [12]: -0.1 mg/dL
- HEMATOCRIT, Change, MAX [12]: 5.9%
- HEMATOCRIT, Change, MEAN [12]: −0.5%
- HEMATOCRIT, Change, MEDIAN [12]: 0.5%
- HEMATOCRIT, Change, MIN [12]: −4.7%
- SGOT (AST), Change, MAX [12]: 8.0 U/L
- SGOT (AST), Change, MEAN [12]: −2.2 U/L
- SGOT (AST), Change, MEDIAN [12]: −1.0 U/L
- SGOT (AST), Change, MIN [12]: −16.0 U/L
- SGPT (ALT), Change, MAX [12]: 8.0 U/L
- SGPT (ALT), Change, MEAN [12]: 0.9 U/L
- SGPT (ALT), Change, MEDIAN [12]: 0.0 U/L
- SGPT (ALT), Change, MIN [12]: −6.0 U/L
- TOTAL BILIRUBIN, Change, MAX [12]: 0.2 mg/dL
- TOTAL BILIRUBIN, Change, MEAN [12]: -0.0 mg/dL
- TOTAL BILIRUBIN, Change, MEDIAN [12]: 0.0 mg/dL
- TOTAL BILIRUBIN, Change, MIN [12]: -0.5 mg/dL
- UREA NITROGEN (BUN), Change, MAX [12]: 4.0 mg/dL
- UREA NITROGEN (BUN), Change, MEAN [12]: 0.1 mg/dL
- UREA NITROGEN (BUN), Change, MEDIAN [12]: 0.0 mg/dL
- UREA NITROGEN (BUN), Change, MIN [12]: -5.0 mg/dL
- serum levels ([13]; adults, oral dose of 200 mg of CLT): 200 to 350 ng/mL
- drug excreted unchanged in the urine ([13]; oral CLT): only a small fraction
- route of elimination ([13]; oral CLT): largely in the feces via biliary excretion
- blood levels in oil solvent relative to tablet forms ([13]; oral, drug delivered in an oil solvent vs tablet): 3-4 times higher
- effect on intracellular IL-8 ([14]; PMA stimulation): no effect
- decrease in IL-8 in Calu-3 cell lysates ([14]; Salmonella stimulation, 30 μM test compound, 5 hours): virtually no decrease

SMILES: OC(Cn1cncn1)(Cn1cncn1)c1ccc(F)cc1F [fluconazole]
- inhibition of secreted IL-8 [2]: Considerably less inhibition

SMILES: c1c[nH]cn1 [imidazole]
- inhibition of secreted IL-8 [2]: Considerably less inhibition

SMILES: CCC(C)n1ncn(-c2ccc(N3CCN(c4ccc(OCC5COC(Cn6cncn6)(c6ccc(Cl)cc6Cl)O5)cc4)CC3)cc2)c1=O (stereo not shown) [itraconazole]
- inhibition of secreted IL-8 [2]: No inhibition

SMILES: Cc1ncc([N+](=O)[O-])n1CCO [metronidazole]
- inhibition of PMN transmigration ([1]; PMN's and T84 cells incubated with 30 μM of study drug for 30 minutes, FIG. 2B): 30-40%

SMILES: C[C@]12C=CC(=O)C=C1CC[C@@H]1[C@@H]2C(=O)C[C@@]2(C)[C@H]1CC[C@]2(O)C(=O)CO [prednisone]
- attenuation of PMN transepithelial migration [1, 15]: no attenuation
